Source: patent publication US20170217889A1, “4-SUBSTITUTED PYRIDINE-2,6-DICARBOXYLIC ACID DERIVATIVES AND METHOD OF PREPARING SAME” (Okinawa Institute of Science and Technology School …, priority 2014, published 2017)

Experiment: Cytotoxicity, K562 cell growth inhibition (Cell Counting Kit-8 / WST-8)
Assay type: cell-based
Settings: human; K562 cells; 6-48 hrs incubation; WST-8 absorbance at 450 nm; read-out: Cytotoxic activity evaluated using K562 cells IC50
Procedure: K562 cells (American Type Culture Collection) were cultured in a culture medium containing 10% (v/v) fetal calf serum (FCS) (manufactures by Sigma) to logarithmic phase. The cells were seeded in 96-well microtiter plate at a density of 5000 cells/well in 100 μL cell culture medium and incubated at 37° C. and 5% CO2 in a humidified incubator overnight. The test compounds of various concentrations were added in a well at 10 fold concentration in 1/10 volume of medium without FCS. After 6-48 hrs incubation at 37° C. in the CO2 incubator, 10 uL solution of the viable cell counting reagent, Cell counting Kit-8 (5 mmol/L WST-8, 0.2 mmol/L 1-Methoxy PMS, 150 mmol/L NaCl) (manufactured by Dojindo) was added to each well, and reacted for 1 to 4 hours in the CO2 incubator. After the incubation, an absorbance of formazan, generated by reduction of WST-8, was determined at 450 nm using a microplate reader.
The assay readout is correlated with the viable cell numbers. Lower values correspond to high inhibition and greater values to low inhibition of the cell growth. To determine IC50 values (i.e. the concentration inhibiting the cell growth by 50%) of the compounds of formula I, several assays were made with a range of concentrations chosen empirically to give low, high and intermediate inhibition of the growth and determined using curve fitting software.

SMILES	IC50 [µM]
CCOC(=O)c1cc(-c2ccc(Br)cc2)cc(C(=O)OCC)n1	35
CCOC(=O)c1cc(-c2ccc(Cl)cc2)cc(C(=O)OCC)n1	50
CCOC(=O)c1cc(C2CCCCC2)cc(C(=O)OCC)n1	51
